The source of these data is PubChem BioAssay AID2060615 (Molecular Pharmacology Branch, DTP, NCI, 2025).

pIC50: −log10 of the molar value. “And” between values parts separate entries of the source, which are not always exact repeats. Equal values may be shown once.

This assay concerns 496974-208-R-J2-PDC complex spheroids, growth % test/control. Kind of assay: Anticancer human tumor 496974-208-R-J2-PDC patient-derived pancreatic carcinoma cell line growth inhibition [CLK]. The following applies: for viability, T/C: stronger effect = lower value. An excerpt: A high-throughput screen of multi-cell type tumor spheroids was designed to identify active combinations of […] and targeted small molecules. Complex spheroids include a stromal component modeled by human endothelial cells (HUVEC) and fibroblasts modeled by human mesenchymal stem cells (MSCs). The concentration ranges selected for each drug and investigational agent were based upon clinically achievable concentrations if the clinical Cmax of the agent was known.
Compounds. The drugs and investigational agents: cirtuvivint (SM08502; NSC835563), CC-671 (NSC850746), vemurafenib (NSC761431), tapotoclax (NSC804041), sotorasib (NSC818433), adagrasib (NSC831453), MRTX-1133 (NSC836407), BAY2416964 (NSC825713), copanlisib (NSC816437), inavolisib (NSC800729), abemaciclib (NSC768073), osimertinib (NSC779217), entinostat (NSC756642), eltanexor (KPT-8602, NSC794443), venetoclax (NSC766270), ceralasertib (NSC777638), bortezomib (NSC756655), olaparib (NSC753686), talazoparib (NSC767125), alisertib (NSC759677), peposertib (NSC802822), gemcitabine (NSC613327), 5-fluorouracil (NSC19893), SN-38 (NSC673596), oxaliplatin (NSC266046), paclitaxel (NSC125973), and doxorubicin (NSC123127), were obtained from the National Cancer Institute (NCI) Developmental Therapeutics Program Chemical Repository. The FDA-approved anticancer drug set is available from the Developmental Therapeutics Program at https://dtp.cancer.gov/organization/dscb/obtaining/available plates.htm. […] The stock solutions were prepared in dimethyl sulfoxide (DMSO, Sigma-Aldrich, St. Louis, MO, cat. D2650), except for the platinum complexes which were prepared in saline (Quality Biological, Gaithersburg, MD, cat. 114-055-101), at 800-fold the tested concentration and stored at -70 degrees C prior to their use. All drugs and investigational agents were tested over a range starting from a high concentration at or near the clinical Cmax and decreasing in half-log increments. If the clinical Cmax for an agent had not been determined, the highest concentration tested was 10 microM.
Cell Culture. All cells were maintained in an incubator at 37 degrees C and 5% CO2 with 95% humidity. The PDC lines were cultured according to standard operating procedures established by the NCI PDMR. Briefly, all PDCs were thawed and cultured in Matrigel-coated flasks prepared with a working solution of 1X Ham's F-12 nutrient mix, without supplementation (Invitrogen, Waltham, MA, cat. 11765054), 100 U/mL penicillin-streptomycin (Invitrogen, cat. 15140122), and 2.5% Matrigel (Corning Inc., Corning, NY, cat. 354248) for the first three passages. The 947758-054-R-J2-PDC line was cultured in 6B/Colon 1A media, which includes advanced DMEM/F-12 (Thermo Fisher Scientific, cat. 12634028), 10 mM HEPES (Thermo Fisher Scientific, cat. 15630080), 1X GlutaMAX supplement (Thermo Fisher Scientific, cat. 35050061), 0.1 mg/mL primocin (InvivoGen, cat. ant-pm-2), 10% defined fetal bovine serum, heat inactivated (HyClone Laboratories Inc., cat. SH30070.03HI), 1.25 mM N-Acetyl-L-cysteine (Sigma-Aldrich, cat. A9165), 10 mM nicotinamide (Sigma-Aldrich, cat. N0636), 1X B-27 supplement (Thermo Fisher Scientific, cat. 17504044), 1X N-2 supplement (Thermo Fisher Scientific, cat. 17502048), and 10 microM Y-27632 dihydrochloride (Tocris Bioscience, cat. 1254). The 876862-298-R-J1-PDC was cultured in 6E media, which includes all 6B/Colon 1A media components plus 50% L-WRN conditioned media (ATCC, cat. CRL-3276), 50 ng/mL recombinant human EGF recombinant protein (hEGF; Thermo Fisher Scientific, cat. PHG0311), 10 ng/mL recombinant human fibroblast growth factor 10 (hGFG-10; PeproTech, cat. 100-26), 1 ng/mL recombinant human fibroblast growth factor 2 (hFGF-2; PeproTech, cat. 100-18B), and 1 µM prostaglandin E2 (PGE2; Tocris, cat. 2296). The 227483-062-R1-J1-PDC line was cultured in Panc media, containing all 6E components except hFGF-2, with the addition of 500 nM SB-431542 (Selleckchem, cat. S1067) and 10 nM gastrin (Tocris, cat. 3006). […]

Setting [1] is: curve of first compound, second compound 0.0316 µM.
Where [2] appears, read: curve of first compound, second compound 0.1 µM.
[3] abbreviates: curve of first compound, second compound 0.316 µM.
The mark [4] stands for this setting: curve of first compound, second compound 1 µM.
The mark [5] stands for this setting: curve of first compound, second compound 3.16 µM.
[6] abbreviates: curve of first compound, second compound 10 µM.
[7] abbreviates: second compound 0.0316 µM, first compound 0.00316 µM.
Setting [8] is: second compound 0.0316 µM, first compound 0.01 µM.
Setting [9] is: second compound 0.0316 µM, first compound 0.0316 µM.
Where [10] appears, read: second compound 0.0316 µM, first compound 0.1 µM.
The mark [11] stands for this setting: second compound 0.0316 µM, first compound 0.316 µM.
The mark [12] stands for this setting: second compound 0.0316 µM, first compound 1 µM.
Where [13] appears, read: second compound 0.1 µM, first compound 0.00316 µM.
Where [14] appears, read: second compound 0.1 µM, first compound 0.01 µM.
[15] abbreviates: second compound 0.1 µM, first compound 0.0316 µM.
[16] abbreviates: second compound 0.1 µM, first compound 0.1 µM.
Where [17] appears, read: second compound 0.1 µM, first compound 0.316 µM.
Where [18] appears, read: second compound 0.1 µM, first compound 1 µM.
The mark [19] stands for this setting: second compound 0.316 µM, first compound 0.00316 µM.
Where [20] appears, read: second compound 0.316 µM, first compound 0.01 µM.
[21] abbreviates: second compound 0.316 µM, first compound 0.0316 µM.
Where [22] appears, read: second compound 0.316 µM, first compound 0.1 µM.
Setting [23] is: second compound 0.316 µM, first compound 0.316 µM.
[24] abbreviates: second compound 0.316 µM, first compound 1 µM.
The mark [25] stands for this setting: second compound 1 µM, first compound 0.00316 µM.
Where [26] appears, read: second compound 1 µM, first compound 0.01 µM.
Where [27] appears, read: second compound 1 µM, first compound 0.0316 µM.
Where [28] appears, read: second compound 1 µM, first compound 0.1 µM.
Where [29] appears, read: second compound 1 µM, first compound 0.316 µM.
The mark [30] stands for this setting: second compound 1 µM, first compound 1 µM.
Where [31] appears, read: second compound 3.16 µM, first compound 0.00316 µM.
[32] abbreviates: second compound 3.16 µM, first compound 0.01 µM.
Setting [33] is: second compound 3.16 µM, first compound 0.0316 µM.
Where [34] appears, read: second compound 3.16 µM, first compound 0.1 µM.
The mark [35] stands for this setting: second compound 3.16 µM, first compound 0.316 µM.
Setting [36] is: second compound 3.16 µM, first compound 1 µM.
[37] abbreviates: second compound 10 µM, first compound 0.00316 µM.
Where [38] appears, read: second compound 10 µM, first compound 0.01 µM.
[39] abbreviates: second compound 10 µM, first compound 0.0316 µM.
[40] abbreviates: second compound 10 µM, first compound 0.1 µM.
Where [41] appears, read: second compound 10 µM, first compound 0.316 µM.
[42] abbreviates: second compound 10 µM, first compound 1 µM.
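Note: spheroids exposed to the drugs for 7 days before readout.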
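Throughout, for viability, T/C: 100% = DMSO vehicle control wells.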

For orientation: pIC50 means the IC50 on a negative log10 scale, so that one unit is a factor of ten. What is called viability, T/C is the result in the treated group divided by that in the control group, in per cent. As to `CCc1c2c(nc3ccc(O)cc13)-c1cc3c(c(=O)n1C2)COC(=O)[C@]3(O)CC` + CNC(=O)c1ccc(Nc2nc(OC3CCCC3)c3c(-c4ccc5nc(C)oc5c4)c[nH]c3n2)c(OC)c1, the pIC50 runs as follows: under setting [1], 7.82; under setting [2], 7.90; under setting [3], 7.90; under setting [4], 7.95; under setting [5], 8.32; under setting [6], greater than 8.50. The viability, T/C is 70.7% under setting [7]; 56.9% under setting [8]; 38.6% under setting [9]; 19% under setting [10]; 12.1% under setting [11]; 3.81% under setting [12]. Further, the viability, T/C is, setting by setting: under setting [13], 67.8%; under setting [14], 54%; under setting [15], 36%; under setting [16], 21.2%; under setting [17], 9.65%; under setting [18], 2.79%. The viability, T/C was 69.8% under setting [19]; 53.5% under setting [20]; 35% under setting [21]; 19.2% under setting [22]; 7.42% under setting [23]; 3.21% under setting [24]. Besides, the viability, T/C under setting [25] is 60.5%; the viability, T/C under setting [26] is 52.6%; the viability, T/C under setting [27] was 31.2%; the viability, T/C under setting [28] was 13.5%; the viability, T/C under setting [29] is 5.29%; the viability, T/C under setting [30] was 2.81%. Further, the viability, T/C by setting is: under setting [31], 54.4%; under setting [32], 42.6%; under setting [33], 25.6%; under setting [34], 12.9%; under setting [35], 4.63%; under setting [36], 2.2%. For the same compound, the viability, T/C under setting [37] is 50%; the viability, T/C under setting [38] is 38.9%; the viability, T/C under setting [39] is 24.4%; the viability, T/C under setting [40] was 11.9%; the viability, T/C under setting [41] is 3.68%; the viability, T/C under setting [42] was 6.41%.

On to `CCN1CCN(Cc2ccc(Nc3ncc(F)c(-c4cc(F)c5nc(C)n(C(C)C)c5c4)n3)nc2)CC1` + CNC(=O)c1ccc(Nc2nc(OC3CCCC3)c3c(-c4ccc5nc(C)oc5c4)c[nH]c3n2)c(OC)c1, for which the pIC50 reads like this: under setting [1], less than 6.00; under setting [2], less than 6.00; under setting [3], less than 6.00; under setting [4], less than 6.00; under setting [5], less than 6.00; under setting [6], less than 6.00. For the same compound, the viability, T/C under setting [7] was 91.7%; the viability, T/C under setting [8] is 90.2%; the viability, T/C under setting [9] was 90.1%; the viability, T/C under setting [10] is 94.2%; the viability, T/C under setting [11] is 98%; the viability, T/C under setting [12] is 98.4%. The viability, T/C was 89.5% under setting [13]; 88.9% under setting [14]; 87.9% under setting [15]; 84.2% under setting [16]; 86.8% under setting [17]; 97.5% under setting [18]. Moreover, the viability, T/C is 81.3% under setting [19]; 81.9% under setting [20]; 87.8% under setting [21]; 81.4% under setting [22]; 85.4% under setting [23]; 94.8% under setting [24]. Further, the viability, T/C runs as follows: under setting [25], 78.7%; under setting [26], 81.2%; under setting [27], 77.7%; under setting [28], 76.3%; under setting [29], 92.6%; under setting [30], 81.8%. For the same compound, the viability, T/C by setting is: under setting [31], 72.5%; under setting [32], 71.9%; under setting [33], 66.7%; under setting [34], 77.6%; under setting [35], 69.3%; under setting [36], 73.7%. Moreover, the viability, T/C is, setting by setting: under setting [37], 63%; under setting [38], 61.7%; under setting [39], 67.7%; under setting [40], 69.3%; under setting [41], 74.7%; under setting [42], 75%.

Regarding `Cn1ncnc1[C@H]1c2n[nH]c(=O)c3cc(F)cc(c23)N[C@@H]1c1ccc(F)cc1`, the viability, T/C runs as follows: (compound 0.000316 µM) 109% and 106%; (compound 0.001 µM) 103% and 99.5%; (compound 0.00316 µM) 90.4% and 101%; (compound 0.01 µM) 95.2% and 99.5%; (compound 0.0316 µM) 93.3% and 95.1%; (compound 0.1 µM) 86% and 104%. For the same compound, the pIC50 (curve of compound) is less than 7.00.

In the case of `C#Cc1c(F)ccc2cc(O)cc(-c3ncc4c(N5CC6CCC(C5)N6)nc(OCC56CCCN5CC(F)C6)nc4c3F)c12` (stereo not given), the viability, T/C by setting is: (compound 0.0316 µM) 63.5% and 68.8%; (compound 0.1 µM) 57.4% and 58.6%; (compound 0.316 µM) 48.7% and 48%; (compound 1 µM) 48.6% and 46.5%; (compound 3.16 µM) 44.9% and 50.8%; (compound 10 µM) 38% and 43.1%. Besides, where the note is “curve of compound”, the negative-log IC50 (pIC50) was 6.33 and 6.44.

On to `C=C(F)C(=O)N1CCN(c2nc(OCC3CCCN3C)nc3c2CCN(c2cccc4cccc(Cl)c24)C3)CC1CC#N` (stereo not given), for which the viability, T/C (compound 0.0316 µM) is 111% and 105%; the viability, T/C (compound 0.1 µM) is 108% and 95.4%; the viability, T/C (compound 0.316 µM) is 97% and 89.5%; the viability, T/C (compound 1 µM) was 95.8% and 87.1%; the viability, T/C (compound 3.16 µM) was 93.5% and 98.2%; the viability, T/C (compound 10 µM) was 2.37% and 3.13%. For the same compound, for the setting “curve of compound”, the pIC50 was 5.26 and 5.25.
